Test results reported in patent US8461328B2, “Tricyclic heterocyclic compounds, compositions and methods of use thereof” (Genentech, Inc., priority 2010, dated 2013).

Columns and labels:
Assay type in all cases: biochemical
JAK1 = target: T1, JAK1 (Homo sapiens, UniProt P23458); assay: JAK1 inhibition (Table 4); conditions: read-out: JAK1 Ki
T1 construct: made in house; host or cells: SF9 insect cells (baculovirus)

TYK2 = target: T2, TYK2 (Homo sapiens, UniProt P29597); assay: TYK2 inhibition (Table 4)
T2 construct: made in house; host or cells: SF9 insect cells (baculovirus)
T2 sequence (P29597 873-1187): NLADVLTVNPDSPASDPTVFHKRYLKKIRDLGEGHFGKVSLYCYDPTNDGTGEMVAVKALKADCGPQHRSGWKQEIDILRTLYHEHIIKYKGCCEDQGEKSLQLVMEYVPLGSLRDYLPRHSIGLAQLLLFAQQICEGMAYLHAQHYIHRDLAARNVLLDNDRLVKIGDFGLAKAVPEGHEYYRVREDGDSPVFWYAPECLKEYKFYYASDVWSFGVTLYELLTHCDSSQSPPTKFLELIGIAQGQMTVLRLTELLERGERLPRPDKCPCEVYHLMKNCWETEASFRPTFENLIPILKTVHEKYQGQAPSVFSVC

JAK3 = target: T3, JAK3 (Homo sapiens, UniProt P52333); assay: JAK3 inhibition (Table 4); conditions: read-out: JAK3 Ki
T3 construct: made in house; host or cells: SF9 insect cells (baculovirus)
T3 sequence (P52333 783-1124): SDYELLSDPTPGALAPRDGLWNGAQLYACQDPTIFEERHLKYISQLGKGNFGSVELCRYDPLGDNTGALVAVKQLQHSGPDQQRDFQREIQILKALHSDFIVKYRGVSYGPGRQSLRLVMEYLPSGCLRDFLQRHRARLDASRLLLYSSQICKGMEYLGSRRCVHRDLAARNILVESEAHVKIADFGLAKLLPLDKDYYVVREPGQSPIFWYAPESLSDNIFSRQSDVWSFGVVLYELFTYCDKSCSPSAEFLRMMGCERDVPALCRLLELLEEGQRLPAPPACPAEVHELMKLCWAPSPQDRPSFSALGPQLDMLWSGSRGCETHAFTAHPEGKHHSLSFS

JAK2 = target: T4, JAK2 (Homo sapiens, UniProt O60674); assay: JAK2 inhibition (Table 4); conditions: read-out: JAK2 Ki
T4 construct: made in house; host or cells: SF9 insect cells (baculovirus)
T4 sequence (O60674 812-1132): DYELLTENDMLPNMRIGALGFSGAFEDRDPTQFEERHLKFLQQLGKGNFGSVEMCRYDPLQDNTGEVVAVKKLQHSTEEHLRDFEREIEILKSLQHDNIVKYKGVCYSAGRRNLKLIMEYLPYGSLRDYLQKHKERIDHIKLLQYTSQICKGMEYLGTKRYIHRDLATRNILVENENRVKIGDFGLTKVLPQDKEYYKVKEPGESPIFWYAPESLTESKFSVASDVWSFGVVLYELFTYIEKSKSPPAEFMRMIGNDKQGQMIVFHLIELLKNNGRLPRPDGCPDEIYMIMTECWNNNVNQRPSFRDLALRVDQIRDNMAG

T1 sequence (P23458 852-1154): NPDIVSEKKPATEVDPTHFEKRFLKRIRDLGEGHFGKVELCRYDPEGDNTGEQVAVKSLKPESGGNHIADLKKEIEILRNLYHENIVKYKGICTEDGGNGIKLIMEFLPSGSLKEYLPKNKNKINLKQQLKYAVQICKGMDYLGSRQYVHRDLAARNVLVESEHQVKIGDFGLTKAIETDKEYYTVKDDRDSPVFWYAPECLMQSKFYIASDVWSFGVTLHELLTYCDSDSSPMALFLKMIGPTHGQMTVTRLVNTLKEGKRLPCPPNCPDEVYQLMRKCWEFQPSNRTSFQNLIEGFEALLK

| Structure (SMILES) | Ki (JAK1) | Ki (TYK2) | Ki (JAK3) | Ki (JAK2) |
| --- | --- | --- | --- | --- |
| CCN1CC[C@@H](n2c([C@@H](C)O)nc3cnc4[nH]ccc4c32)[C@@H](F)C1 [Example 868, (R)-1-[1-((3S,4R)-1-Ethyl-3-fluoro-piperidin-4-yl)-1,6-dihydro-1,3,5,6-tetraaza-as-indacen-2-yl]-ethanol] | 7.07 nM | 149 nM | 119 nM | 148 nM |
| C#CCCN1CCC(n2c([C@@H](C)O)nc3cnc4[nH]ccc4c32)CC1 [Example 871, (R)-1-[1-(1-But-3-ynyl-piperidin-4-yl)-1,6-dihydro-1,3,5,6-tetraaza-as-indacen-2-yl]-ethanol] | 59.7 nM | 1170 nM | 177 nM | 290 nM |
| C[C@@H](O)c1nc2cnc3[nH]ccc3c2n1C1CCN(CCF)CC1 [Example 873, (R)-1-{1-[1-(2-Fluoro-ethyl)-piperidin-4-yl]-1,6-dihydro-1,3,5,6-tetraaza-as-indacen-2-yl}-ethanol] | 20.7 nM | 422 nM | 72.7 nM | 124 nM |
| C[C@@H](O)c1nc2cnc3[nH]ccc3c2n1C1CCNCC1F (stereo partly drawn) [Example 877, (R)-1-[1-(3-Fluoro-piperidin-4-yl)-1,6-dihydro-1,3,5,6-tetraaza-as-indacen-2-yl]-ethanol] | 1.69 nM | 10.9 nM | 10.6 nM | 37.8 nM |
| C[C@@H](O)c1nc2cnc3[nH]ccc3c2n1C1CCOCC1 [Example 881, (R)-1-[1-(Tetrahydro-pyran-4-yl)-1,6-dihydro-1,3,5,6-tetraaza-as-indacen-2-yl]-ethanol] | 26.4 nM | 59.7 nM | 90.6 nM | 280 nM |
| C[C@@H](O)c1nc2cnc3[nH]ccc3c2n1N1CCCCC1 [Example 882, (R)-1-(1-Piperidin-1-yl-1,6-dihydro-1,3,5,6-tetraaza-as-indacen-2-yl)-ethanol] | 3.56 nM | 10.6 nM | 72.6 nM | 51.6 nM |
| CC(C)CC(=O)NC1CCC(n2nnc3cnc4[nH]ccc4c32)CC1 (centres unmarked) [Example 883, 3-Methyl-N-[4-(6H-1,2,3,5,6-pentaaza-as-indacen-1-yl)-cyclohexyl]-butyramide] | 4.61 nM | 244 nM | 89.3 nM | 15.8 nM |
| Cc1nc2cnc3[nH]ccc3c2n1[C@@H]1CCCC(=O)C1 [Example 885, (R)-3-(2-Methyl-6H-1,3,5,6-tetraaza-as-indacen-1-yl)-cyclohexanone] | 6.16 nM | 33 nM | 47.8 nM | 23.8 nM |
| COC1CCCC(n2c(C)nc3cnc4[nH]ccc4c32)C1 (centres unmarked) [Example 889, 1-(3-Methoxy-cyclohexyl)-2-methyl-1,6-dihydro-1,3,5,6-tetraaza-as-indacene] | 36.2 nM | 96.5 nM | 335 nM | 337 nM |
| Cc1nc2cnc3[nH]ccc3c2n1[C@@H]1CCC[C@@](C)(O)C1 [Example 892, (1R,3R)-1-Methyl-3-(2-methyl-6H-1,3,5,6-tetraaza-as-indacen-1-yl)-cyclohexanol] | 82.1 nM | 114 nM | 130 nM | 145 nM |
| C[C@@H](O)c1nc2cnc3[nH]ccc3c2n1[C@H]1CCN(CCC#N)C1 [Example 893, 3-{(S)-3-[2-((R)-1-Hydroxy-ethyl)-6H-1,3,5,6-tetraaza-as-indacen-1-yl]-pyrrolidin-1-yl}-propionitrile] | 4.9 nM | 9.49 nM | 60.7 nM | 49.2 nM |
| C[C@@H](O)c1nc2cnc3[nH]ccc3c2n1C1CCN(Cc2ccn[nH]2)CC1 [Example 896, (R)-1-{1-[1-(2H-Pyrazol-3-ylmethyl)-piperidin-4-yl]-1,6-dihydro-1,3,5,6-tetraaza-as-indacen-2-yl}-ethanol] | 1.72 nM | 56.7 nM | 6.89 nM | 21.4 nM |
| OCc1nc2cnc3[nH]ccc3c2n1C1CCN(CC(F)F)CC1 [Example 897, {1-[1-(2,2-Difluoro-ethyl)-piperidin-4-yl]-1,6-dihydro-1,3,5,6-tetraaza-as-indacen-2-yl}-methanol] | 1.9 nM | 4.42 nM | 13.2 nM | 9.44 nM |
| C[C@@H](O)c1nc2cnc3[nH]ccc3c2n1C1CCN(Cc2cnco2)CC1 [Example 898, (R)-1-[1-(1-Oxazol-5-ylmethyl-piperidin-4-yl)-1,6-dihydro-1,3,5,6-tetraaza-as-indacen-2-yl]-ethanol] | 2.09 nM | 96.7 nM | 12.9 nM | 54.4 nM |
| Cc1cc(CN2CCC(n3c([C@@H](C)O)nc4cnc5[nH]ccc5c43)CC2)no1 [Example 899, (R)-1-{1-[1-(5-Methyl-isoxazol-3-ylmethyl)-piperidin-4-yl]-1,6-dihydro-1,3,5,6-tetraaza-as-indacen-2-yl}-ethanol] | 3.32 nM | 140 nM | 6.73 nM | 32.1 nM |
| Cc1nc2ncccn2c1CN1CCC(n2c([C@@H](C)O)nc3cnc4[nH]ccc4c32)CC1 [Example 901, (R)-1-{1-[1-(2-Methyl-imidazo[1,2-a]pyrimidin-3-ylmethyl)-piperidin-4-yl]-1,6-dihydro-1,3,5,6-tetraaza-as-indacen-2-yl}-ethanol] | 25 nM | 223 nM | 72.5 nM | 139 nM |
| Cc1nc(CN2CCC(n3c([C@@H](C)O)nc4cnc5[nH]ccc5c43)CC2)c[nH]1 [Example 902, (R)-1-{1-[1-(2-Methyl-1H-imidazol-4-ylmethyl)-piperidin-4-yl]-1,6-dihydro-1,3,5,6-tetraaza-as-indacen-2-yl}-ethanol] | 25.5 nM | 2670 nM | 478 nM | 1230 nM |
| Cc1nc(CN2CCC(n3c([C@@H](C)O)nc4cnc5[nH]ccc5c43)CC2)c(C)o1 [Example 903, (R)-1-{1-[1-(2,5-Dimethyl-oxazol-4-ylmethyl)-piperidin-4-yl]-1,6-dihydro-1,3,5,6-tetraaza-as-indacen-2-yl}-ethanol] | 33.9 nM | 542 nM | 88.9 nM | 323 nM |

Further lines, results first:

| Ki (JAK1) | Ki (TYK2) | Ki (JAK3) | Ki (JAK2) | Structure (SMILES) |
| --- | --- | --- | --- | --- |
| 3.58 nM | 26.6 nM | 119 nM | 96.5 nM | C[C@@H](O)c1nc2cnc3[nH]ccc3c2n1C1CCCC1 [Example 867, (R)-1-(1-Cyclopentyl-1,6-dihydro-1,3,5,6-tetraaza-as-indacen-2-yl)-ethanol] |
| 1.8 nM | 11.8 nM | 13.6 nM | 43.7 nM | O[C@@H](c1nc2cnc3[nH]ccc3c2n1C1CCCCC1)C(F)(F)F [Example 878, (S)-1-(1-Cyclohexyl-1,6-dihydro-1,3,5,6-tetraaza-as-indacen-2-yl)-2,2,2-trifluoro-ethanol] |
| 5.17 nM | 44 nM | 86.3 nM | 6.39 nM | O=C(NC1CCC(n2cnc3cnc4[nH]ccc4c32)CC1)c1cccnc1 (centres unmarked) [Example 884, N-[4-(6H-1,3,5,6-Tetraaza-as-indacen-1-yl)-cyclohexyl]-nicotinamide] |
| 10.3 nM | 52.8 nM | 41.7 nM | 16.7 nM | Cc1nc2cnc3[nH]ccc3c2n1[C@H]1CCC[C@](C)(O)C1 [Example 886, (1S,3S)-1-Methyl-3-(2-methyl-6H-1,3,5,6-tetraaza-as-indacen-1-yl)-cyclohexanol] |
| 11.1 nM | 79 nM | 193 nM | 23.9 nM | COCC(=O)NC1CCC(n2cnc3cnc4[nH]ccc4c32)CC1 (centres unmarked) [Example 887, 2-Methoxy-N-[4-(6H-1,3,5,6-tetraaza-as-indacen-1-yl)-cyclohexyl]-acetamide] |
| 12.8 nM | 40.9 nM | 14 nM | 17.7 nM | Cc1nc2cnc3[nH]ccc3c2n1[C@H]1CCC[C@@](C)(O)C1 [Example 888, (1R,3S)-1-Methyl-3-(2-methyl-6H-1,3,5,6-tetraaza-as-indacen-1-yl)-cyclohexanol] |
| 37.6 nM | 133 nM | 36.9 nM | 38.1 nM | Cc1nc2cnc3[nH]ccc3c2n1[C@@H]1CCC[C@](C)(O)C1 [Example 890, (1S,3R)-1-Methyl-3-(2-methyl-6H-1,3,5,6-tetraaza-as-indacen-1-yl)-cyclohexanol] |
| 65 nM | 165 nM | 240 nM | 543 nM | C[C@@H](O)c1nc2cnc3[nH]ccc3c2n1N1CCOCC1 [Example 891, (R)-1-(1-Morpholin-4-yl-1,6-dihydro-1,3,5,6-tetraaza-as-indacen-2-yl)-ethanol] |
| 1.27 nM | 99.1 nM | 3.34 nM | 19.1 nM | Cc1cc(CN2CCC(n3c(C(C)O)nc4cnc5[nH]ccc5c43)C(F)C2)on1 (centres unmarked) [Example 895, 1-{1-[3-Fluoro-1-(3-methyl-isoxazol-5-ylmethyl)-piperidin-4-yl]-1,6-dihydro-1,3,5,6-tetraaza-as-indacen-2-yl}-ethanol] |
| 18 nM | 2010 nM | 130 nM | 494 nM | CCn1ncc(CN2CCC(n3c([C@@H](C)O)nc4cnc5[nH]ccc5c43)CC2)c1C [Example 900, (R)-1-{1-[1-(1-Ethyl-5-methyl-1H-pyrazol-4-ylmethyl)-piperidin-4-yl]-1,6-dihydro-1,3,5,6-tetraaza-as-indacen-2-yl}-ethanol] |
| 51.8 nM | 119 nM | 273 nM | 271 nM | CC(O)c1nc2cnc3[nH]ccc3c2n1C1CC2CCC1O2 (centres unmarked) [Example 906, 1-[1-(7-Oxa-bicyclo[2.2.1]hept-2-yl)-1,6-dihydro-1,3,5,6-tetraaza-as-indacen-2-yl]-ethanol] |
